Data from patent publication US8993565B2, “(6-oxo-1,6-dihydropyrimidin-2-yl)amide derivatives, preparation thereof and pharmaceutical use thereof as AKT(PKB) phosphorylation inhibitors” (Sanofi, priority 2009, dated 2015).

Tested on: AKT protein phosphorylated on serine 473 (P-AKT-S473)
Test: Study of pAKT expression in PC3 human prostate carcinoma cells measured by the MSD Multi-spot Biomarker Detection technique (Test B)
Assay type: cell-based
Settings: PC-3, inhibition of AKT phosphorylation (P-AKT-S473), MSD sandwich immunoassay, 1 to 2 h incubation, absolute IC50, mean of 2 experiments
Protocol: The inhibitory activity of the molecules on AKT phosphorylation is measured either by western blotting using the technique described below, or by the MSD Multi-spot Biomarker detection technique from Meso Scale Discovery also described below.
Study of pAKT Expression in PC3 Human Prostate Carcinoma Cells Measured by the MSD Multi-Spot Biomarker Detection Technique from Meso Scale Discovery (Test B):
The primary antibody specific for P-AKT-S473 (Kit #K151CAD) is coated on to an electrode in each well of the 96-well plates of the MSD, kit: after the addition of a protein lysate to each well, the signal is visualised by adding a secondary detection antibody labelled with an electrochemoluminescent compound. The procedure followed is that described in the kit.
On day 2, the cells are incubated in the presence or absence of the test products for 1 to 2 h at 37° C. in the presence of 5% of CO2. The molecules, diluted in dimethyl sulphoxide (DMSO Sigma #D2650), are added from a 20-times concentrated stock solution, the final percentage of DMSO being 0.1%. The molecules are tested either at a single concentration of less than or equal to 10 μM, or at increasing concentrations in a range that can extend from less than 1 nM to 10 μM.
After this incubation, the cells are lysed for the preparation of the proteins. […] At this stage, the plates containing the lysates can be stored at −20° C. or at −80° C.
The wells of the 96-well plates of the MSD kit are saturated for 1 h at ambient temperature with the blocking solution of the MSD kit. Four washes are carried out with 150 μl of Tris Wash Buffer of the MSD kit. The lysates previously prepared are transferred into the 96-well multi-spot plates of the MSD kit and incubated for 1 h at ambient temperature, with shaking. Four washes are carried out with 150 μl of Tris Wash Buffer of the MSD kit. 25 μl of the MSD sulfo-tag detection antibody solution are added to the wells and incubated for 1 h at ambient temperature, with shaking. Four washes are carried out with 150 μl of Tris Wash Buffer of the MSD kit. 150 μl of Read Buffer of the MSD kit are added to the wells and the plates are read immediately on the S12400 instrument from Meso Scale Discovery.
The instrument measures a signal for each well. Wells without cells and containing the lysis buffer serve to determine the background noise that will be subtracted from all the measurements (min). The wells containing cells in the absence of product and in the presence of 0.1% DMSO are considered to be the 100% signal (max). The percentage inhibition is calculated for each concentration of test product according to the following formula: (1-((test-min)(max-min)))×100.
2 independent experiments make it possible to calculate the mean of the IC50 values.

| IC50 | SMILES |
| --- | --- |
| 666 nM | Cn1ccc2c(NC(=O)Cc3nc(N4CCOCC4)cc(=O)[nH]3)cccc21 [Example 99, N-(1-methyl-1H-indol-4-yl)-2-[4-(morpholin-4-yl)-6-oxo-1,6-dihydropyrimidin-2-yl]acetamide] |
| 24 nM | O=C(Cc1nc(N2CCOCC2)cc(=O)[nH]1)Nc1ccccc1OCCN1CCCCC1 [Example 107, 2-[4-(morpholin-4-yl)-6-oxo-1,6-dihydropyrimidin-2-yl]-N-{2-[2-(piperidin-1-yl)ethoxy]phenyl}acetamide] |
| 56 nM | COCCOc1ccccc1NC(=O)Cc1nc(N2CCOCC2)cc(=O)[nH]1 [Example 108, N-[2-(2-methoxyethoxy)phenyl]-2-[4-(morpholin-4-yl)-6-oxo-1,6-dihydropyrimidin-2-yl]acetamide] |
| 23 nM | O=C(Cc1nc(N2CCOCC2)cc(=O)[nH]1)Nc1ccccc1OCCN1CCCC1 [Example 112, 2-[4-(morpholin-4-yl)-6-oxo-1,6-dihydropyrimidin-2-yl]l-N-{2-[2-(pyrrolidin-1-yl)ethoxy]phenyl}acetamide] |
| 664 nM | O=C(Cc1nc(N2CCOCC2)cc(=O)[nH]1)Nc1ccccc1OCc1cccnc1 [Example 113, 2-[4-(morpholin-4-yl)-6-oxo-1,6-dihydropyrimidin-2-yl]-N-[2-(pyridin-3-ylmethoxy)phenyl]acetamide] |
| 174 nM | O=C(Cc1nc(N2CCOCC2)cc(=O)[nH]1)Nc1ccc(F)cc1OCC1CCNCC1 [Example 133, N-[4-fluoro-2-(piperidin-4-ylmethoxy)phenyl]-2-[4-(morpholin-4-yl)-6-oxo-1,6-dihydropyrimidin-2-yl]acetamide] |
| 35 nM | COCCOc1cc(F)ccc1NC(=O)Cc1nc(N2CCOCC2)cc(=O)[nH]1 [Example 138, N-[4-fluoro-2-(2-methoxyethoxy)phenyl]-2-[4-(morpholin-4-yl)-6-oxo-1,6-dihydropyrimidin-2-yl]acetamide] |
| 3000 nM | O=C(Cc1nc(N2CCOCC2)cc(=O)[nH]1)Nc1cccc2[nH]cnc12 [Example 139, N-(1H-benzimidazol-4-yl)-2-[4-(morpholin-4-yl)-6-oxo-1,6-dihydropyrimidin-2-yl]acetamide] |
| 22 nM | O=C(Cc1nc(N2CCOCC2)cc(=O)[nH]1)Nc1cccc(Br)c1O [Example 142, N-(3-bromo-2-hydroxyphenyl)-2-[4-(morpholin-4-yl)-6-oxo-1,6-dihydropyrimidin-2-yl]acetamide] |

The next lines start with the compound.

| SMILES | IC50 |
| --- | --- |
| Cn1c(CC(=O)Nc2ccc(F)c(C(F)F)c2)nc(N2CCOCC2)cc1=O [Example 97, N-[3-(difluoromethyl)-4-fluorophenyl]-2-[1-methyl-4-(morpholin-4-yl)-6-oxo-1,6-dihydropyrimidin-2-yl]acetamide] | 260 nM |
| Cn1c(CC(=O)Nc2cc(F)c(F)c(F)c2)nc(N2CCOCC2)cc1=O [Example 98, 2-(1-methyl-4-morpholin-4-yl-6-oxo-1,6-dihydropyrimidin-2-yl)-N-(3,4,5-trifluorophenyl)acetamide] | 219 nM |
| Cc1cccc2c1CCN2C(=O)Cc1nc(N2CCOCC2)cc(=O)[nH]1 [Example 100, 2-[2-(4-methyl-2,3-dihydro-1H-indol-1-yl)-2-oxoethyl]-6-(morpholin-4-yl)pyrimidin-4(3H)-one] | 3 nM |
| CC1CN(C(=O)Cc2nc(N3CCOCC3)cc(=O)[nH]2)c2ccccc21 (stereo not shown) [Example 101, 2-[2-(3-methyl-2,3-dihydro-1H-indol-1-yl)-2-oxoethyl]-6-(morpholin-4-yl)pyrimidin-4(3H)-one] | 13 nM |
| O=C(Cc1nc(N2CCOCC2)cc(=O)[nH]1)N1CCc2cc(F)ccc21 [Example 103, 2-[2-(5-Fluoro-2,3-dihydroindol-1-yl)-2-oxoethyl]-6-morpholin-4-yl-3H-pyrimidin-4-one] | 7 nM |
| O=C(Cc1nc(N2CCOCC2)cc(=O)[nH]1)Nc1cccc2sccc12 [Example 105, N-(1-benzothiophen-4-yl)-2-[4-(morpholin-4-yl)-6-oxo-1,6-dihydropyrimidin-2-yl]acetamide] | 15 nM |
| Cn1c(CC(=O)N2CCc3c(O)cccc32)nc(N2CCOCC2)cc1=O [Example 109, 2-[2-(4-hydroxy-2,3-dihydro-1H-indol-1-yl)-2-oxoethyl]-3-methyl-6-(morpholin-4-yl)pyrimidin-4(3H)-one] | 43 nM |
| C[C@H]1Cc2ccccc2N1C(=O)Cc1nc(N2CCOCC2)cc(=O)[nH]1 [Example 117, 2-{2-[(2S)-2-methyl-2,3-dihydro-1H-indol-1-yl]-2-oxoethyl}-6-(morpholin-4-yl)pyrimidin-4(3 H)-one] | 19 nM |
| C[C@@H]1Cc2ccccc2N1C(=O)Cc1nc(N2CCOCC2)cc(=O)[nH]1 [Example 118, 2-{2-[(2R)-2-methyl-2,3-dihydro-1H-indol-1-yl]-2-oxoethyl}-6-(morpholin-4-yl)pyrimidin-4(3H)-one] | 12 nM |
| NC(=O)C1Cc2ccccc2N1C(=O)Cc1nc(N2CCOCC2)cc(=O)[nH]1 (stereo not shown) [Example 122, 1-{[4-(morpholin-4-yl)-6-oxo-1,6-dihydropyrimidin-2-yl]acetyl}-2,3-dihydro-1H-indole-2-carboxamide] | 503 nM |
| C[C@@H]1CN(C(=O)Cc2nc(N3CCOCC3)cc(=O)[nH]2)c2ccccc21 [Example 125, 2-{2-[(3S)-3-methyl-2,3-dihydro-1H-indol-1-yl]-2-oxoethyl}-6-(morpholin-4-yl)pyrimidin-4(3 H)-one] | 16 nM |
| C[C@H]1CN(C(=O)Cc2nc(N3CCOCC3)cc(=O)[nH]2)c2ccccc21 [Example 126, 2-{2-[(3R)-3-methyl-2,3-di hydro-1H-indol-1-yl]-2-oxoethyl}-6-(morpholin-4-yl)pyrimidin-4(3H)-one] | 57 nM |
| Cn1c(CC(=O)N2CCc3c2ccc(F)c3F)nc(N2CCOCC2)cc1=O [Example 128, 2-[2-(4,5-difluoro-2,3-dihydro-1H-indol-1-yl)-2-oxoethyl]-3-methyl-6-(morpholin-4-yl)pyrimidin-4(3H)-one] | 69 nM |
| O=C(Cc1nc(N2CCOCC2)cc(=O)[nH]1)N1Cc2ccccc2C1 [Example 129, 2-[2-(1,3-dihydro-2H-isoindol-2-yl)-2-oxoethyl]-6-(morpholin-4-yl)pyrimidin-4(3H)-one] | 1000 nM |
| O=C(Cc1nc(N2CCOCC2)cc(=O)[nH]1)N1CCc2cc(Cl)ccc21 [Example 134, 2-[2-(5-Chloro-2,3-dihydroindol-1-yl)-2-oxoethyl]-6-morpholin-4-yl-3H-pyrimidin-4-one] | 124 nM |
| O=C(Cc1nc(N2CCOCC2)cc(=O)[nH]1)N1CCc2c(Br)cccc21 [Example 135, 2-[2-(4-Bromo-2,3-dihydroindol-1-yl)-2-oxoethyl]-6-morpholin-4-yl-3H-pyrimidin-4-one] | 1 nM |
| CN(C)C[C@@H]1CN(C(=O)Cc2nc(N3CCOCC3)cc(=O)[nH]2)c2ccccc21 [Example 137, 2-(2-{(3R)-3-[(dimethylamino)methyl]-2,3-dihydro-1H-indol-1-yl}-2-oxoethyl)-6-(morpholin-4-yl)pyrimidin-4(3H)-one] | 68 nM |
| COC(=O)c1cccc(NC(=O)Cc2nc(N3CCOCC3)cc(=O)[nH]2)c1O [Example 140, methyl 2-hydroxy-3-(([4-(morpholin-4-yl)-6-oxo-1,6-dihydropyrimidin-2-yl]acetyl)amino)benzoate] | 302 nM |
| COc1cccc2c1CCN2C(=O)Cc1nc(N2CCOCC2)cc(=O)[nH]1 [Example 141, 2-[2-(4-Methoxy-2,3-dihydroindol-1-yl)-2-oxoethyl]-6-morpholin-4-yl-3H-pyrimidin-4-one] | 60 nM |
